# Source: the RepoRT retention time repository
# Assay: RP, Waters CORTECS UPLC C18, 100 × 2.1 mm, 1.6 µm, 40 °C, 0.4 mL/min, estimated dead time 0.55 min; A: water + 0.1% formic acid, pH 3; B: acetonitrile + 0.1% formic acid, pH 3; gradient (min/%B) 0/5 1.12/5 6.41/99.5 10.01/99.5
# Conditions: stereoisomer not certain
row,Structure (SMILES),LC retention time
1,COc1cc(C)c(C(=O)c2c(OC)ccc(Br)c2C)c(OC)c1OC [Metrafenone],4.52 min
2,N#CC(CCc1ccc(Cl)cc1)(Cn1cncn1)c1ccccc1 (stereo unspecified) [Fenbucanozole],5.11 min
3,CC1COC(Cn2cncn2)(c2ccc(Oc3ccc(Cl)cc3)cc2Cl)O1 (stereo unspecified) [Difenoconazole],5.46 min
4,CC1(C)COC(=O)C1O (stereo unspecified) [PANTOLACTONE],3.31 min
5,C#CC(C)(C)NC(=O)c1cc(Cl)cc(Cl)c1 [Propyzamide],5.01 min
6,COC=C(C(=O)OC)c1ccccc1Oc1cc(Oc2ccccc2C#N)ncn1 [Azoxystrobin],4.91 min
7,Nc1ccccc1C(=O)CC(N)C(=O)O (stereo unspecified) [KYNURENINE],1.19 min
8,CC(C)OC(=O)C(C(=O)OC(C)C)=C1SCCS1 [Isoprothiolane],5.21 min
9,c1ccc2[nH]c(-c3cscn3)nc2c1 [Thiabendazole],2.53 min
10,CCCCCCCCCCCC[n+]1cccc(S(=O)(=O)[O-])c1 [C12-APS],4.89 min
11,CC(C)(C)C(O)C(Oc1ccc(-c2ccccc2)cc1)n1cncn1 (stereo unspecified) [Bitertanol],5.14 min
12,O=C(O)c1ccc[nH]1 [PYRROLE-2-CARBOXYLATE],0.766 min
13,CCOC(=O)NCCOc1ccc(Oc2ccccc2)cc1 [Fenoxycarb],5.19 min
14,O=C(O)CNC(=O)C=Cc1ccccc1 [N-(CINNAMOYL)GLYCINE],3.26 min
15,CCOP(=O)(SC(C)CC)N1CCSC1=O (stereo unspecified) [Fosthiazate],4.22 min
16,O=C(Nc1ccccc1)Nc1ccnc(Cl)c1 [Forchlorfenuron],4.19 min
17,CCOC(=O)C(Cl)Cc1cc(-n2nc(C)n(C(F)F)c2=O)c(F)cc1Cl (stereo unspecified) [Carfentrazone-ethyl],5.39 min
18,O=C(O)c1ccc2ccccc2n1 [2-QUINOLINECARBOXYLATE],2.4 min
19,CC(C)CC(=O)OC(CC(=O)[O-])C[N+](C)(C)C [Isovaleryl-L-carnitine],2.61 min
20,CCCOC(=O)NCCCN(C)C [Propamocarb],1.97 min
21,CN1COCN(Cc2cnc(Cl)s2)C1=N[N+](=O)[O-] [Thiametoxam],2.87 min
22,Cc1nnc(-c2ccccc2)c(=O)n1N [Metamitron],3.09 min

row,Structure (SMILES),LC retention time
1,Cc1c[nH]c(=O)[nH]c1=O [THYMINE],0.792 min
2,O=C(O)CCCCCCCC(O)C(O)CCCCCCO (stereo unspecified) [Aleuritic acid],3.52 min
3,CC(C)=CC(=O)NCC(=O)O [3-Methylcrotonyl Glycine],2.29 min
4,COP(=S)(OC)Oc1c(Cl)cc(C)cc1Cl [Tolclosof methyl],5.72 min
5,CNC(=O)C(C)SCCSP(=O)(OC)OC (stereo unspecified) [Vamidothion],3.02 min
6,O=Cc1cccc(O)c1 [3-HYDROXYBENZALDEHYDE],2.13 min
7,CC1(O)CCOC(=O)C1 (racemic) [(±)-Mevalonolactone],0.963 min
8,CCOP(=S)(OCC)Oc1nc(Cl)c(Cl)cc1Cl [Dursban],6.17 min
9,OCCc1c[nH]c2ccccc12 [INDOLE-3-ETHANOL],3.05 min
10,CC1=C(C(=O)Nc2ccccc2)CCCO1 [Pyracarbolid],4.15 min
11,"C[C@H](CCC(=O)O)[C@H]1CC[C@H]2[C@@H]3[C@H](O)C[C@@H]4C[C@H](O)CC[C@]4(C)[C@H]3CC(=O)[C@]12C [(3ALPHA,5BETA,7ALPHA)-3,7-DIHYDROXY-12-OXOCHOLAN-24-OIC ACID]",4.24 min
12,CCCC(Cn1cncn1)c1ccc(Cl)cc1Cl (stereo unspecified) [Penconazole],5.19 min
13,CNC(=O)Oc1ccc(N(C)C)c(C)c1 [Aminocarb],1.6 min
14,CNC(=O)Oc1cc(C)c(N(C)C)c(C)c1 [Mexacarbate],2.61 min
15,O=C(O)c1cc(=O)c2ccccc2[nH]1 [KYNURENATE],2.35 min
16,CS(=O)(=O)c1cc(C(F)(F)F)ccc1C(=O)c1cnoc1C1CC1 [Isoxaflutole],4.85 min
17,CC(C)CCCC(C)C1CCC2C3C(=O)C=C4CC(O)CCC4(C)C3CCC12C (stereo not drawn) [5-Cholesten-3β-ol-7-one],7.56 min
18,CCC(C)(NC(=O)c1cc(Cl)c(C)c(Cl)c1)C(=O)CCl (stereo unspecified) [Zoxamide],5.55 min
19,CCCCC(=O)OC(CC(=O)[O-])C[N+](C)(C)C [Valeryl-L-carnitine],2.66 min
20,Cc1cc2nc3c(=O)[nH]c(=O)nc-3n(CC(O)C(O)C(O)CO)c2cc1C (stereo unspecified) [RIBOFLAVIN],2.67 min
21,CC(CCC(=O)O)C1CCC2C3C(=O)CC4CC(O)CCC4(C)C3CCC12C (stereo unspecified) [Nutriacholic Acid],4.8 min
22,COc1cccc(C(=O)NN(C(=O)c2cc(C)cc(C)c2)C(C)(C)C)c1C [Methoxyfenozide],5.09 min

row,Structure (SMILES),LC retention time
1,NCC(O)c1ccccc1 (stereo unspecified) [PHENYLETHANOLAMINE],0.755 min
2,CCCCOC(=O)N(C)SN(C)C(=O)Oc1cccc2c1OC(C)(C)C2 [Furathiocarb],6.05 min
3,CCC1CCCC(OC2CCC(N(C)C)C(C)O2)C(C)C(=O)C2=CC3C(C=CC4CC(OC5OC(C)C(OC)C(OC)C5OC)CC43)C2CC(=O)O1 (stereo unspecified) [Spinosad A & D],4.76 min
4,COC(=O)C(C)N(C(=O)c1ccco1)c1c(C)cccc1C (stereo unspecified) [Furalaxyl],4.79 min
5,Cn1c(=O)c2c(ncn2C)n(C)c1=O [CAFFEINE],2.52 min
6,CCOP(=S)(OCC)SCn1c(=O)oc2cc(Cl)ccc21 [Phosalone],5.7 min
7,O=C(NC(=O)c1c(F)cccc1F)Nc1ccc(OC(F)(F)C(F)OC(F)(F)F)c(Cl)c1 (stereo unspecified) [Novaluron],5.71 min
8,COc1cc(OC)nc(Oc2cccc(Oc3nc(OC)cc(OC)n3)c2C(=O)[O-])n1.[Na+] [Bispyribac sodium salt],4.63 min
9,CCOC(=O)OC1=C(c2cc(C)ccc2C)C(=O)NC12CCC(OC)CC2 (stereo unspecified) [Spirotetramat],4.8 min
10,CC(CCC(=O)O)C1CCC2C3C(O)CC4CC(O)CCC4(C)C3CCC12C (stereo unspecified) [Chenodeoxycholic acid],5.12 min
11,CC(=O)OCC(=O)C1(O)CCC2C3CCC4=CC(=O)CCC4(C)C3C(O)CC21C (stereo unspecified) [CORTISOL 21-ACETATE],4.25 min
12,"N[C@@H](Cc1cc(I)c(O)c(I)c1)C(=O)O [3,5-DIIODO-L-TYROSINE]",2.69 min
13,O=C(O)c1c[nH]c2ccccc12 [Indole-3-carboxylic acid],3.21 min
14,CC(C1CC1)C(O)(Cn1cncn1)c1ccc(Cl)cc1 (stereo unspecified) [Cyproconazole],4.78 min
15,CCOC1Oc2ccc(OS(C)(=O)=O)cc2C1(C)C (stereo unspecified) [Ethofumesate],5.04 min
16,Cc1cc2nc3c(=O)[nH]c(=O)nc-3n(CC(O)C(O)C(O)COP(=O)(O)OP(=O)(O)OCC3OC(n4cnc5c(N)ncnc54)C(O)C3O)c2cc1C (stereo unspecified) [FAD],2.34 min
17,COC(=O)C=C(C)OP(=O)(OC)OC [Mevinphos],3.41 min
18,O=C(O)CNC(=O)c1ccccc1 [Hippuric acid],2.6 min
19,Nc1nc2c(ncn2C2CC(O)C(CO)O2)c(=O)[nH]1 (stereo unspecified) [DEOXYGUANOSINE],0.751 min
20,CCCCCCCCCCCCCC(O)CC(=O)OC(CC(=O)[O-])C[N+](C)(C)C [[(3R)-3-Hydroxyhexadecanoyl]-L-carnitine],5.1 min
21,CC(C)(C)C(O)(CCc1ccc(Cl)cc1)Cn1cncn1 (stereo unspecified) [Tebuconazole],5.06 min
22,CC(CCC(=O)O)C1CCC2C3C(O)CC4CC(O)CCC4(C)C3CC(O)C12C (stereo unspecified) [Ursocholic acid (7-epicholic acid)],4.34 min

row,Structure (SMILES),LC retention time
1,CC(=O)NC(Cc1c[nH]c2ccccc12)C(=O)O (stereo unspecified) [N-ACETYLTRYPTOPHAN],3.14 min
2,CC12CCC(=O)C=C1CCC1C2C(=O)CC2(C)C1CCC2(O)C(=O)CO (stereo unspecified) [CORTISONE],3.69 min
3,CC(=O)NCCCC(=O)O [4-ACETAMIDOBUTANOATE],0.817 min
4,Cc1cc(C2CC2)nc(Nc2ccccc2)n1 [Cyprodinil],4.68 min
5,CCC(C)C(=O)NCC(=O)O (stereo unspecified) [N-(2-Methylbutyryl)glycine],2.27 min
6,CCC(C)(CC)c1cc(NC(=O)c2c(OC)cccc2OC)on1 [Isoxaben],5.08 min
7,CNC(=O)N(C)c1nc2ccccc2s1 [Methabenzthiazurone],4.12 min
8,COc1nc(C)nc(NC(=O)NS(=O)(=O)c2ccccc2OCCCl)n1 [Triasulfuron],4.09 min
9,CNC(=O)ON=C(CSC)C(C)(C)C [Thiofanox],4.76 min
10,COCCCNc1nc(NC(C)C)nc(SC)n1 [Methoprotryne],3.87 min
11,NC(Cc1ccccc1)C(=O)O (stereo unspecified) [PHENYLALANINE],1.25 min
12,CCC(C)C1OC2(C=CC1C)CC1CC(CC=C(C)C(OC3CC(OC)C(OC4CC(OC)C(O)C(C)O4)C(C)O3)C(C)C=CC=C3COC4C(O)C(C)=CC(C(=O)O1)C34O)O2 (stereo unspecified) [Mixture of Avermectin B1a and B1b],6.5 min
13,CN(C)C(=O)Nc1cccc(C(F)(F)F)c1 [Fluometuron],4.2 min
14,CCCCCCC[n+]1cccc(S(=O)(=O)[O-])c1 [C7-APS],3.32 min
15,CNCCc1c[nH]c2ccccc12 [N-METHYLTRYPTAMINE],2.54 min
16,CCCCC(C#N)(Cn1cncn1)c1ccc(Cl)cc1 (stereo unspecified) [Myclobutanil],4.93 min
17,CC(CCC(=O)NCC(=O)O)C1CCC2C3CCC4CC(O)CCC4(C)C3CC(O)C12C (stereo unspecified) [Glycodeoxycholic acid],4.66 min
18,OC(Cn1cncn1)(c1ccc(F)cc1)c1ccccc1F (stereo unspecified) [Flutriafol],4.2 min
19,CCOP(=S)(OCC)Oc1cc(C)nc(C(C)C)n1 [Diazinon],5.73 min
20,CC(CCC(=O)NCC(=O)O)C1CCC2C3C(O)CC4CC(O)CCC4(C)C3CC(O)C12C (stereo unspecified) [Glycocholic acid hydrate],4.08 min
